According to patent US20090137553A1, “Thiazepine Oxazolidinones as Antibacterial Agents” (Pharmacia and Upjohn Company LLC, priority 2004, published 2009):
Values after ≈ are worked out from the molar mass of the structure shown.

Assays:
Format in all cases: cell-based
S. aureus (UC-76) = experiment: In vitro antibacterial activity (MIC), S. aureus; settings: Staphylococcus aureus, UC76; strain UC-76; lowest concentration preventing macroscopically visible growth; read-out: Minimum Inhibitory concentrations S. aureus (UC-76)
Text: (§1) The in vitro antibacterial activity of the compounds of the present invention may be assessed by following procedures recommended in (1) National Committee for Clinical Laboratory Standards (January 2003), Methods for dilution antimicrobial tests for bacteria that grow aerobically, Approved Standard (6th ed), M7-A6, NCCLS, Wayne, Pa.; (2) National Committee for Clinical Laboratory Standards (March 2001), Methods for antimicrobial susceptibility testing of anaerobic bacteria, Approved Standard (5th ed), M11-A4, NCCLS, Wayne, Pa.; (3) National Committee for Clinical Laboratory Standards (January 2003), MIC testing supplemental tables, M100-S13 (for use with M7-A6), NCCLS, Wayne, Pa.; and (4) Murray P R, Baron E J, Jorgensen J H, et al. Manual of Clinical Microbiology (8th ed) Washington, D.C.: American Society for Microbiology Press, 2003. The antibacterial activity can be presented in the form of MIC value. The MIC value is the lowest concentration of drug which prevented macroscopically visible growth under the conditions of the test.

S. pyogenes (C203) = experiment: In vitro antibacterial activity (MIC), S. pyogenes; settings: Streptococcus pyogenes; strain C203; lowest concentration preventing macroscopically visible growth; read-out: Minimum Inhibitory concentrations S. pyogenes (C203)
Text: as §1

S. pneumoniae (SV-1) = experiment: In vitro antibacterial activity (MIC), S. pneumoniae; settings: Streptococcus pneumoniae; strain SV-1; lowest concentration preventing macroscopically visible growth; read-out: Minimum Inhibitory concentrations S. pneumoniae (SV-1)
Text: as §1

SMILES	MIC (S. aureus (UC-76)) [µg/mL]	MIC (S. pyogenes (C203)) [µg/mL]	MIC (S. pneumoniae (SV-1)) [µg/mL]
CONC(=O)[C@H]1CN(c2cc(F)c(N3CCCS(=O)(=O)CC3)c(F)c2)C(=O)O1 [Example 5, 3-[4-(1,1-dioxo-1λ^6-[1,4]thiazepan-4-yl)-3,5-difluoro-phenyl]-2-oxo-oxazolidine-5-carboxylic acid methoxy-amide]	4 (≈ 9.54 µM)	4 (≈ 9.54 µM)	8 (≈ 19.1 µM)
CNC(=O)[C@H]1CN(c2cc(F)c(N3CCC/S(=N\C(=O)C(F)(F)F)CC3)c(F)c2)C(=O)O1 (stereo in doubt) [Example 7, 3-{3,5-difluoro-4-[1-(2,2,2-trifluoro-acetylimino)-1λ^4-[1,4]thiazepan-4-yl]-phenyl}-2-oxo-oxazolidine-5-carboxylic acid methylamide]	8 (≈ 16.6 µM)	8 (≈ 16.6 µM)	8 (≈ 16.6 µM)
CNC(=O)[C@H]1CN(c2ccc(N3CCCSCC3)c(F)c2)C(=O)O1 [Example 9, 5(R)-3-[3-Fluoro-4-(1,4-thiazepan-4-yl)-phenyl]-2-oxo-oxazolidine-5-carboxylic acid methylamide]	8 (≈ 22.6 µM)	4 (≈ 11.3 µM)	8 (≈ 22.6 µM)
NC(=O)[C@H]1CN(c2cc(F)c(N3CCC/S(=N\C(=O)C(F)(F)F)CC3)c(F)c2)C(=O)O1 (stereo partly drawn) [Example 6, 3-{3,5-difluoro-4-[1-(2,2,2-trifluoro-acetylimino)-114-[1,4]thiazepan-4-yl]-phenyl}-2-oxo-oxazolidine-5-carboxylic acid amide]	8 (≈ 17.1 µM)	8 (≈ 17.1 µM)	8 (≈ 17.1 µM)
NC(=O)[C@H]1CN(c2ccc(N3CCC[S+]([O-])CC3)c(F)c2)C(=O)O1 (stereo partly drawn) [Example 12, 5(R)-3-[3-fluoro4-(1-oxo-1-[1,4]thiazepan-4-yl)-phenyl]-2-oxo-oxazolidine-5-carboxylic acid amide]	2 (≈ 5.63 µM)	1 (≈ 2.81 µM)	4 (≈ 11.3 µM)
CNC(=O)[C@H]1CN(c2ccc(N3CCC[S+]([O-])CC3)c(F)c2)C(=O)O1 (stereo partly drawn) [Example 11, 5(R)-3-[-fluoro-4-(1-oxo-1λ^4-[1,4]thiazepan-4yl)-phenyl]-2-oxo-oxazolidine-5-carboxylic acid methyl amide]	2 (≈ 5.41 µM)	1 (≈ 2.71 µM)	4 (≈ 10.8 µM)
CNC(=O)[C@H]1CN(c2ccc(N3CCCS(=O)(=O)CC3)c(F)c2)C(=O)O1 [Example 13, 5(R)-3-[4-(1,1-dioxo-1λ^6-[1,4]thiazepan-4-yl)-3-fluoro-phenyl]-2-oxo-oxazolidine-5-carboxylic acid methyl amide]	12 (≈ 31.1 µM)	1 (≈ 2.59 µM)	2 (≈ 5.19 µM)
CNC(=O)[C@H]1CN(c2cc(F)c(N3CCCS(=O)(=O)CC3)c(F)c2)C(=O)O1 [Example 4, 3-[4-(1,1-dioxo-1λ^6-[1,4]thiazepan-4-yl)-3,5-difluoro-phenyl]-2-oxo-oxazolidine-5-carboxylic acid methylamide]	2 (≈ 4.96 µM)	2 (≈ 4.96 µM)	4 (≈ 9.92 µM)
CNC(=O)[C@H]1CN(c2cc(F)c(N3CCCSCC3)c(F)c2)C(=O)O1 [Example 2, 3-[3,5-difluoro-4-(1,4-thiazepan-4-yl)-phenyl]-2-oxo-oxazolidine-5-carboxylic acid methylamide]	2 (≈ 5.38 µM)	2 (≈ 5.38 µM)	4 (≈ 10.8 µM)
NC(=O)[C@H]1CN(c2cc(F)c(N3CCCSCC3)c(F)c2)C(=O)O1 [Example 1, 3-[3,5-difluoro-4-(1,4-thiazepan-4-yl)-phenyl]-2-oxo-oxazolidine-5-carboxylic acid amide]	2 (≈ 5.6 µM)	2 (≈ 5.6 µM)	4 (≈ 11.2 µM)
NC(=O)[C@H]1CN(c2cc(F)c(N3CCCS(=O)(=O)CC3)c(F)c2)C(=O)O1 [Example 3, 3-[4-(1,1-dioxo-1λ^6-[1,4]thiazepan-4-yl)-3,5-difluoro-phenyl]-2-oxo-oxazolidine-5-carboxylic acid amide]	2 (≈ 5.14 µM)	2 (≈ 5.14 µM)	4 (≈ 10.3 µM)
